Assays:
Design in all cases: key: −: it showed no change; +: it showed a slight reduction of the color spot of the substrate and the formation of other reaction product; ++: it showed a high reduction of the color spot of the substrate and the formation of other reaction product; +++: it showed a substantial disappearance of the substrate spot and the formation of other reaction product
[1] = tested on: α-isomaltosylglucosaccharide-forming enzyme; assay: Action on saccharides as substrates (TLC), enzyme of N75 strain; assay type: biochemical, Bacillus globisporus N75 strain; details: two units/g substrate, substrate 2% (w/v), 30° C., pH 6.0, 24 hours
From the text: (§1) To examine the saccharides in the supernatant, they were separated by developing twice on silica gel thin-layer chromatography (abbreviated as “TLC” hereinafter) using, as a developer, a mixture solution of n-butanol, pyridine, and water (=6:4:1 by volume), and, as a thin-layer plate, “[…]™ 60”, an aluminum plate (20×20 cm) for TLC commercialized by Merck & Co., Inc., Rahway, USA. The coloration of the separated total sugars by the sulfuric acid-methanol method and that of the reducing saccharides by the diphenylamine-aniline method detected a non-reducing saccharide positive at an Rf value of about 0.31 on the former detection method but negative on the latter detection method.
(§2) It was tested whether any saccharides can be used as substrates for α-isomaltosylglucosaccharide-forming enzyme. For the purpose, a solution of maltose, maltotriose, maltotetraose, maltopentaose, maltohexaose, maltoheptaose, isomaltose, isomaltotriose, panose, isopanose, α,α-trehalose, kojibiose, nigerose, neotrehalose, cellobiose, gentibiose, maltitol, maltotriitol, lactose, sucrose, erlose, selaginose, maltosyl glucoside, or isomaltosyl glucoside was prepared.
(§3) To each of the above solutions was added two units/g substrate of a purified specimen of α-isomaltosylglucosaccharide-forming enzyme from either Bacillus globisporus C9 strain obtained by the method in Experiment 4-2, Bacillus globisporus C11 strain obtained by the method in Experiment 7-2, Bacillus globisporus N75 strain obtained by the method in Experiment 11-2, or Arthrobacter globiformis A19 strain obtained by the method in Experiment 15-2, and the resulting each solution was adjusted to give a substrate concentration of 2% (w/v) and incubated at 30° C. and pH 6.0 for 24 hours, except for using pH 8.4 for the enzyme from Arthrobacter globiformis A19 strain. The enzyme solutions before and after the enzymatic reactions were respectively analyzed on TLC disclosed in Experiment 1 to confirm whether the enzymes acted on these substrates.

[2] = tested on: α-isomaltosylglucosaccharide-forming enzyme; assay: Action on saccharides as substrates (TLC), enzyme of C9 strain; assay type: biochemical, Bacillus globisporus C9 strain; details: two units/g substrate, substrate 2% (w/v), 30° C., pH 6.0, 24 hours
From the text: as §1, §2, §3

[3] = tested on: α-isomaltosylglucosaccharide-forming enzyme; assay: Action on saccharides as substrates (TLC), enzyme of A19 strain; assay type: biochemical, Arthrobacter globiformis A19 strain; details: two units/g substrate, substrate 2% (w/v), 30° C., pH 8.4, 24 hours
From the text: as §1, §2, §3

[4] = tested on: α-isomaltosylglucosaccharide-forming enzyme; assay: Action on saccharides as substrates (TLC), enzyme of C11 strain; assay type: biochemical, Bacillus globisporus C11 strain; details: two units/g substrate, substrate 2% (w/v), 30° C., pH 6.0, 24 hours
From the text: as §1, §2, §3

Compound | Enzymatic action, Enzyme of N75 strain [1] | Enzymatic action, Enzyme of C9 strain [2] | Enzymatic action, Enzyme of A19 strain [3] | Enzymatic action, Enzyme of C11 strain [4]
OC[C@H]1O[C@@](CO)(O[C@H]2O[C@H](CO)[C@@H](O[C@H]3O[C@H](CO)[C@@H](O)[C@H](O)[C@H]3O)[C@H](O)[C@H]2O)[C@@H](O)[C@@H]1O [Erlose, erlose] | + | + | + | +
OC[C@H]1O[C@H](O[C@H]2[C@H](O)[C@@H](O)[C@@H](OC[C@H]3OC(O)[C@H](O)[C@@H](O)[C@@H]3O)O[C@@H]2CO)[C@H](O)[C@@H](O)[C@@H]1O (stereo partly shown) [Isopanose, isopanose] | ++ | ++ | ++ | ++
OC[C@H]1O[C@H](O[C@H]2C(O)O[C@H](CO)[C@@H](O)[C@@H]2O)[C@H](O)[C@@H](O)[C@@H]1O (stereo partly shown) [Kojibiose, kojibiose] | + | + | + | +
OC[C@H]1O[C@H](O[C@H]2[C@H](O)[C@@H](O)[C@H](O)O[C@@H]2CO)[C@H](O)[C@@H](O)[C@@H]1O [Maltose, maltose] | + | + | + | +
OC[C@H]1O[C@H](O[C@H]2O[C@H](CO)[C@@H](O[C@H]3O[C@H](CO)[C@@H](O)[C@H](O)[C@H]3O)[C@H](O)[C@H]2O)[C@H](O)[C@@H](O)[C@@H]1O [Maltosyl glucoside, maltosyl glucoside] | ++ | ++ | ++ | ++
OC[C@H]1O[C@H](O[C@H]2[C@H](O)[C@@H](O)[C@@H](O[C@H]3[C@H](O)[C@@H](O)[C@@H](O[C@H]4[C@H](O)[C@@H](O)C(O)O[C@@H]4CO)O[C@@H]3CO)O[C@@H]2CO)[C@H](O)[C@@H](O)[C@@H]1O (stereo partly shown) [Maltotetraose, maltotetraose] | +++ | +++ | +++ | +++
OC[C@@H](O)[C@@H](O[C@H]1O[C@H](CO)[C@@H](O[C@H]2O[C@H](CO)[C@@H](O)[C@H](O)[C@H]2O)[C@H](O)[C@H]1O)[C@H](O)[C@@H](O)CO [Maltotriitol, maltotriitol] | + | + | + | +
OC[C@H]1O[C@@H](O[C@H]2O[C@H](CO)[C@@H](O)[C@H](O)[C@H]2O)[C@H](O)[C@@H](O)[C@@H]1O [Neotrehalose, neotrehalose] | + | + | + | +
OC[C@H]1O[C@H](O[C@H]2[C@H](O)[C@@H](CO)OC(O)[C@@H]2O)[C@H](O)[C@@H](O)[C@@H]1O (stereo partly shown) [Nigerose, nigerose] | + | + | + | +
OC[C@H]1O[C@H](OC[C@H]2O[C@H](O[C@H]3[C@H](O)[C@@H](O)C(O)O[C@@H]3CO)[C@H](O)[C@@H](O)[C@@H]2O)[C@H](O)[C@@H](O)[C@@H]1O (stereo partly shown) [Panose, panose] | − | − | − | −
OC[C@H]1O[C@H](O[C@H]2O[C@H](CO)[C@@H](O)[C@H](O)[C@H]2O[C@H]2O[C@H](CO)[C@@H](O)[C@H](O)[C@H]2O)[C@H](O)[C@@H](O)[C@@H]1O [Selaginose, selaginose] | − | − | − | −
isomaltosyl glucoside | − | − | − | −
maltoheptaose | +++ | +++ | +++ | +++
maltohexaose | +++ | +++ | +++ | +++
maltopentaose | +++ | +++ | +++ | +++
maltotriose | ++ | ++ | ++ | ++
